Experimental data as given in patent US20210068395A1, “METHODS OF APPLYING ONE OR MORE CERTAIN HETEROARYL-1,2,4-TRIAZOLE AND HETEROARYL-TETRAZOLE COMPOUNDS TO CONTROL DAMAGE ON PLANTS, PROPAGATION MATERIAL THEREOF, AND PLANT DERIVED PRODUCTS” (SYNGENTA CROP PROTECTION AG, priority 2018, published 2021).

Assays:
Assay type in all cases: in vivo
[1] = test system: Diabrotica balteata (corn root worm); assay: Diabrotica balteata (corn root worm), sprayed maize sprouts; conditions: 96 h, application rate 200 ppm, L2 larvae, 4 days after infestation, read-out: control in at least one of the two categories (mortality or growth inhibition)
Experimental: Maize sprouts placed onto an agar layer in 24-well microtiter plates were treated with aqueous test solutions prepared from 10,000 ppm DMSO stock solutions by spraying. After drying, the plates were infested with L2 larvae (6 to 8 per well). The samples were assessed for mortality and growth inhibition in comparison to untreated samples 4 days after infestation.

[2] = test system: Euschistus heros (Neotropical Brown Stink Bug); assay: Euschistus heros feeding/contact activity; conditions: 120 h, application rate 200 ppm, N2 nymphs on soybean leaves, 5 days after infestation, read-out: control in at least one of the two categories (mortality or growth inhibition)
Experimental: Soybean leaves on agar in 24-well microtiter plates were sprayed with aqueous test solutions prepared from 10,000 ppm DMSO stock solutions. After drying the leaves were infested with N2 nymphs. The samples were assessed for mortality and growth inhibition 5 days after infestation.

[3] = test system: Myzus persicae (Green Peach Aphid); assay: Myzus persicae feeding/contact activity; conditions: foliar, 144 h, application rate 200 ppm, sunflower leaf discs sprayed, 6 days after infestation
Experimental: (§1) Sunflower leaf discs were placed onto agar in a 24-well microtiter plate and sprayed with aqueous test solutions prepared from 10,000 ppm DMSO stock solutions. After drying, the leaf discs were infested with an aphid population of mixed ages. The samples were assessed for mortality 6 days after infestation.

[4] = test system: Myzus persicae (Green Peach Aphid); assay: Myzus persicae systemic activity; conditions: 144 h, test rate 24 ppm, roots of pea seedlings in test solution, 6 days
Experimental: Roots of pea seedlings infested with an aphid population of mixed ages were placed directly into aqueous test solutions prepared from 10,000 DMSO stock solutions. The samples were assessed for mortality 6 days after placing seedlings into test solutions.

[5] = test system: Myzus persicae (Green Peach Aphid); assay: Myzus persicae feeding activity (sucrose solution, Parafilm); conditions: 120 h, test rate 12.5 ppm, in sucrose solution, 5 days after infestation
Experimental: Test compounds prepared from 10,000 ppm DMSO stock solutions were applied by pipette into 24-well microtiter plates and mixed with sucrose solution. The plates were closed with a stretched Parafilm. A plastic stencil with 24 holes was placed onto the plate and infested pea seedlings were placed directly on the Parafilm. The infested plate was closed with a gel blotting paper and another plastic stencil and then turned upside down. The samples were assessed for mortality 5 days after infestation.

[6] = test system: Plutella xylostella (Diamond Back Moth); assay: Plutella xylostella feeding/contact activity, 96-well artificial diet; conditions: 216 h, application rate 500 ppm, 9 days after infestation
Experimental: 1, 2, 3, 4, 17, 19, 23, 26, 39, 41, 42, 54, 55, 56 Plutella xylostella (Diamond Back Moth):Feeding/Contact Activity 96-well microtiter plates containing artificial diet were treated with aqueous test solutions, prepared from 10,000 ppm DMSO stock solutions, by a liquid handling robot. After drying, eggs (˜30 per well) were infested onto a netted lid which was suspended above the diet. The eggs hatch and L1 larvae move down to the diet. The samples were assessed for mortality 9 days after infestation.

[7] = test system: Plutella xylostella (Diamond Back Moth); assay: Plutella xylostella feeding/contact activity, 24-well artificial diet; conditions: 192 h, application rate 200 ppm, 24-well artificial diet, 8 days after infestation, read-out: control in at least one of the two categories (mortality or growth inhibition)
Experimental: 24-well microtiter plates with artificial diet were treated with aqueous test solutions prepared from 10,000 ppm DMSO stock solutions by pipetting. After drying, Plutella eggs were pipetted through a plastic stencil onto a gel blotting paper and the plate was closed with it. The samples were assessed for mortality and growth inhibition in comparison to untreated samples 8 days after infestation.

[8] = test system: Spodoptera littoralis (Egyptian Cotton Leaf Worm); assay: Spodoptera littoralis feeding/contact activity; conditions: foliar, 72 h, application rate 200 ppm, L1 larvae on cotton leaf discs, 3 days after infestation, read-out: control in at least one of the three categories (mortality or growth inhibition or anti-feeding)
Experimental: Cotton leaf discs were placed onto agar in 24-well microtiter plates and sprayed with aqueous test solutions prepared from 10,000 ppm DMSO stock solutions. After drying the leaf discs were infested with five L1 larvae. The samples were assessed for mortality, anti-feeding and growth inhibition 3 days after infestation.

[9] = test system: Spodoptera littoralis (Egyptian Cotton Leaf Worm); assay: Spodoptera littoralis systemic activity (lettuce); conditions: 144 h, test rate 12.5 ppm, root uptake in lettuce, 6 days after infestation, read-out: control in at least one of the three categories (mortality or growth inhibition or anti-feeding)
Excerpt: Test compounds were applied by pipette prepared from 10,000 ppm DMSO stock solutions into 24-well plates and mixed with agar. Lettuce seeds were placed onto the agar and the multi well plate was closed by another plate which contained also agar. After 7 days the compound was absorbed by the roots and the lettuce grew into the lid plate. The lettuce leaves were then cut off into the lid plate. Spodoptera eggs were pipetted through a plastic stencil onto a humid gel blotting paper and the lid plate was closed with it. The samples were assessed for mortality, anti-feeding and growth inhibition 6 days after infestation.

[10] = test system: Thrips tabaci (Onion thrips); assay: Thrips tabaci feeding/contact activity; conditions: foliar, 144 h, application rate 200 ppm, sunflower leaf discs, 6 days after infestation, read-out: control in at least one of the two categories (mortality or anti-feeding)
Experimental: as §1, with “on” for “onto”, “in” for “in a”, “plates” for “plate”, “drying” for “drying,”, “a thrips” for “an aphid”, “mortality, and anti-feeding” for “mortality”

[11] = test system: Carpocapsa (Cydia) Pomonella (Codling Moth); assay: Carpocapsa (Cydia) pomonella larvicide, feeding/contact; conditions: 336 h, test rate 50 ppm, L1 larvae on diet cubes, 14 days after infestation, read-out: control in at least one of the two categories (mortality or growth inhibition)
Experimental: Diet cubes coated with paraffin were sprayed with diluted test solutions in an application chamber. After drying off the treated cubes (10 replicates) were infested with 1 L1 larvae. Samples were incubated at 26-27° C. and checked 14 days after infestation for mortality and growth inhibition.

[12] = test system: Chrysodeixis includens (Soybean Looper); assay: Chrysodeixis includens larvicide, feeding/contact; conditions: 120 h, test rate 50 ppm, L2 larvae on soybean leaves, 5 days after infestation, read-out: control in at least one of the two categories (mortality or growth inhibition)
Experimental: Soybean plants were treated in a spray chamber, cut off and placed into petri dishes containing wet filter paper. 1 d after application leaves were infested with 5 L2 larvae and covered with a fabric filter and plastic lids. 5 days after infestation the samples were assessed for mortality and growth inhibition.

[13] = test system: Nilaparvata lugens (Brown Plant Hopper); assay: Nilaparvata lugens larvicide, feeding/contact; conditions: 168 h, test rate 200 ppm, N3 nymphs on sprayed rice plants, 7 days after treatment, read-out: control in at least one of the two categories (mortality or growth inhibition)
Experimental: Rice plants were treated with the diluted test solutions in a spray chamber. After drying plants were infested with ˜20 N3 nymphs. 7 days after the treatment samples were assessed for mortality and growth inhibition.

[14] = test system: Nilaparvata lugens (Brown Plant Hopper); assay: Nilaparvata lugens larvicide, systemic into water; conditions: 168 h, test rate 12.5 ppm, into nutritive solution of rice plants, N3 nymphs, 7 days after infestation, read-out: control in at least one of the two categories (mortality or growth inhibition)
Experimental: Rice plants cultivated in a nutritive solution were treated with the diluted test solutions into nourishing cultivation system. 1 day after application plants were infested with ˜20 N3 nymphs. 7 days after infestation samples were assessed for mortality and growth inhibition.

[15] = test system: Chilo suppressalis (Striped Stem Borer); assay: Chilo suppressalis larvicide, feeding/contact; conditions: 120 h, test rate 200 ppm, L2 larvae on sprayed rice plants, 5 days after application
Experimental: Rice plants were treated in a spray chamber, cut off and placed into petri dishes containing wet filter paper. 10 L2 larvae were infested and covered up with a cotton filter and a lid. 5 days after application samples were assessed for mortality.

[16] = test system: Frankliniella occidentalis (Western Flower Thrips); assay: Frankliniella occidentalis feeding/contact activity; conditions: foliar, 168 h, application rate 200 ppm, mixed ages on sunflower leaf discs, 7 days after infestation
Experimental: Sunflower leaf discs were placed on agar in 24-well microtiter plates and sprayed with aqueous test solutions prepared from 10,000 DMSO stock solutions. After drying the leaf discs were infested with a Frankliniella population of mixed ages. The samples were assessed for mortality 7 days after infestation.

[17] = test system: Aphis craccivora (Black Bean Aphid); assay: Aphis craccivora mixed population, contact/feeding; conditions: 120 h, test rate 200 ppm, pea seedlings sprayed, 5 days after treatment
Experimental: Pea seedlings infested with mixed aged aphid population were treated with diluted test solutions in a spray chamber. 5 days after treatment, samples were assessed for mortality.

[18] = test system: Aphis craccivora (Black Bean Aphid); assay: Aphis craccivora mixed population, systemic/feeding; conditions: 120 h, test rate 12.5 ppm, pea seedlings in test solutions, 5 days
Experimental: Pea seedlings infested with mixed aged aphid population, were put into glass vials with test solutions. 5 days later, samples were assessed for mortality.

[19] = test system: Aedes aegypti (Yellow Fever Mosquito); assay: whole plant or invertebrate; conditions: test rate 200 ppm, adult females, mortality assessed at 24 and 48 hours
Experimental: (§2) Test solutions, at an application rate of 200 ppm in ethanol, were applied to 12 well tissue culture plates. Once the deposits were dry, five, two to five day old adult female Aedes aegypti were added to each well, and sustained with a 10% sucrose solution in a cotton wool plug. Assessment of knockdown was made one hour after introduction, and mortality was assessed at 24 and 48 hours after introduction.

[20] = test system: Anopheles stephensi (Indian Malaria Mosquito); assay: Anopheles stephensi adult contact on treated plates; conditions: test rate 200 ppm, adult females, mortality assessed at 24 and 48 hours
Experimental: as §2, with “Anopheles stephensi” for “Aedes aegypti”

Row | SMILES | percent control (mortality or growth inhibition) at 200 ppm [1] [%] | percent control (mortality or growth inhibition) at 200 ppm [2] [%] | mortality at 200 ppm [3] [%] | mortality at 24 ppm [4] [%] | mortality at 12.5 ppm [5] [%] | mortality at 500 ppm [6] [%] | percent control (mortality or growth inhibition) at 200 ppm [7] [%] | percent control (mortality, anti-feedant effect or growth inhibition) at 200 ppm [8] [%] | percent control (mortality, anti-feedant effect or growth inhibition) at 12.5 ppm [9] [%] | percent control (mortality, anti-feedant effect or growth inhibition) at 200 ppm [10] [%] | percent control (mortality or growth inhibition) at 50 ppm [11] [%] | percent control (mortality or growth inhibition) at 50 ppm [12] [%] | percent control (mortality or growth inhibition) at 200 ppm [13] [%] | percent control (mortality or growth inhibition) at 12.5 ppm [14] [%] | mortality at 200 ppm [15] [%] | mortality at 200 ppm [16] [%] | mortality at 200 ppm [17] [%] | mortality at 12.5 ppm [18] [%] | mortality at 200 ppm [19] [%] | mortality at 200 ppm [20] [%]
1 | CCN(C(=O)c1cc(C(F)(F)F)cc(C(F)(F)F)c1)C(C)c1ncnn1-c1ncccn1 (stereo not shown) [Compound 39] | ≥ 80 | ≥ 80 | ≥ 80 | ≥ 80 | ≥ 80 | ≥ 80 | ≥ 80 | ≥ 80 | ≥ 80 | ≥ 80 | ≥ 80 | ≥ 80 | ≥ 80 | ≥ 80 | ≥ 80 |  |  |  |  | 
2 | C[C@H](NC(=O)c1cc(C(F)(F)F)cc(C(F)(F)F)c1)c1ncnn1-c1ncccn1 [Compound 17] | ≥ 80 | ≥ 80 | ≥ 80 | ≥ 80 | ≥ 80 | ≥ 80 | ≥ 80 | ≥ 80 | ≥ 80 | ≥ 80 | ≥ 80 | ≥ 80 |  |  | ≥ 80 |  |  |  |  | 
3 | C#CCN(C(=O)c1cc(C(F)(F)F)cc(C(F)(F)F)c1)C(C)c1ncnn1-c1ncccn1 (stereo not shown) [Compound 2] | ≥ 80 | ≥ 80 | ≥ 80 | ≥ 80 | ≥ 80 | ≥ 80 |  | ≥ 80 |  | ≥ 80 | ≥ 80 | ≥ 80 | ≥ 80 | ≥ 80 | ≥ 80 | ≥ 80 | ≥ 80 | ≥ 80 | ≥ 60 | ≥ 60
4 | CC(c1ncnn1-c1ccccn1)N(CC1CC1)C(=O)c1cc(C(F)(F)F)cc(C(F)(F)F)c1 (stereo not shown) [Compound 74] | ≥ 80 |  |  |  |  | ≥ 80 | ≥ 80 | ≥ 80 | ≥ 80 |  | ≥ 80 | ≥ 80 |  | ≥ 80 | ≥ 80 |  |  |  |  | 
5 | CC(c1ncnn1-c1ncccn1)N(CC1CC1)C(=O)c1cc(Cl)cc(OC(F)(F)F)c1 (stereo not shown) [Compound 26] | ≥ 80 |  | ≥ 80 |  | ≥ 80 | ≥ 80 | ≥ 80 | ≥ 80 | ≥ 80 |  | ≥ 80 | ≥ 80 | ≥ 80 | ≥ 80 | ≥ 80 |  |  |  |  | 
